Assay results as given in article PMC11217349, “Development of Nurr1 agonists from amodiaquine by scaffold hopping and fragment growing” (Communications Chemistry, 2024).
Where “and” joins values, the source holds several entries; their conditions need not be identical. Equal values may be shown once. Entries after “also recorded” stand apart in the source; their conditions may differ.

Experiments:
[1] = tested on: human midbrain organoids from wildtype iPSC (isogenic control); test: Midbrain organoid model, isogenic control; type: cell-based; conditions: immunostaining, fixed area
[2] = target: T1, human full-length Nurr1 monomer (NBRE) (Homo sapiens, UniProt P43354); test: Full-length Nurr1 reporter gene assay (NBRE); type: cell-based; conditions: full-length human Nurr1 monomer, HEK293T
T1 construct: The full-length human nuclear receptor Nurr1 (pcDNA3.1-hNurr1-NE; Addgene plasmid #102363); host or cells: HEK293T
T1 sequence (P43354 whole entry): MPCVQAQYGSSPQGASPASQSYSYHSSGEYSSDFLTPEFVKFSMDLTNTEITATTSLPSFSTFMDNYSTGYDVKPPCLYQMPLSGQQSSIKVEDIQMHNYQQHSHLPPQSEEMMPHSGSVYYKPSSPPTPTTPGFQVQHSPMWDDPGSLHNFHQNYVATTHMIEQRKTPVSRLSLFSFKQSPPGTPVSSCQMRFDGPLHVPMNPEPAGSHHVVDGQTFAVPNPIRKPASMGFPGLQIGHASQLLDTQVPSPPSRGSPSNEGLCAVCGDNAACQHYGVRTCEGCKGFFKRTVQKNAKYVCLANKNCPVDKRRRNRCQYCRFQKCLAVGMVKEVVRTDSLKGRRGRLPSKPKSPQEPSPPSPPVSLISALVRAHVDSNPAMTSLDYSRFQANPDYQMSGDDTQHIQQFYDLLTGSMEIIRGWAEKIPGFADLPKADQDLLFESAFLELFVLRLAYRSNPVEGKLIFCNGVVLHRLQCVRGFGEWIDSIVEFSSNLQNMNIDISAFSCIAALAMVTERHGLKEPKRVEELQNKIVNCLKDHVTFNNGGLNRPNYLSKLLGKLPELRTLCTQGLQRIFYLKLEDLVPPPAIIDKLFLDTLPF
From the text: (§1) Activation of full-length human Nurr1 was studied in transiently transfected HEK293T cells using the reporter plasmids pFR-Luc-NBRE[14], pFR-Luc-POMC[14] or pFR-Luc-DR5[14] each containing one copy of the respective human Nurr1 response element NBRE Nl3, NurRE, or DR5. The full-length human nuclear receptor Nurr1 (pcDNA3.1-hNurr1-NE; Addgene plasmid #102363) and, for DR5, RXRα (pSG5-hRXR)[57] were overexpressed. pRL-SV40 (Promega) was used for the normalization of transfection efficacy and to observe test compound toxicity. […] After 24 h, the medium was changed to Opti-MEM without supplements, and cells were transiently transfected using Lipofectamine LTX reagent (Invitrogen) according to the manufacturer’s protocol. Five hours after transfection, cells were incubated with the test compounds in Opti-MEM supplemented with penicillin (100 U/mL), streptomycin (100 μg/mL) and 0.1% DMSO for 16 h before luciferase activity was measured using the Dual-Glo Luciferase Assay System (Promega) according to the manufacturer’s protocol on a Tecan Spark luminometer (Tecan Deutschland GmbH). Firefly luminescence was divided by Renilla luminescence and multiplied by 1000 resulting in relative light units (RLU) to normalize for transfection efficiency and cell growth. Fold activation was obtained by dividing the mean RLU of the test compound by the mean RLU of the untreated control. All samples were tested in at least three biologically independent experiments in duplicates. For dose-response curve fitting and calculation of EC50 values, the equation “[Agonist] vs. response -- Variable slope (four parameters)” was used in GraphPad Prism (version 7.00, GraphPad Software).

HEK293T cells = test: WST-8 cytotoxicity assay, HEK293T; type: cell-based, human; conditions: for toxicity (WST-8): HEK293T cells, 24 h
Protocol: Each sample was prepared in four biologically independent repeats. After incubation for 24 h, the medium was refreshed and 10% water-soluble tetrazolinum salt (Cell Counting Kit-8, MedChemExpress) was added to assess metabolic activity. After 4 h, absorbance was measured at 450 nm using a Tecan Spark Cyto instrument (Tecan).

[3] = tested on: Nurr1-regulated TH, VMAT2 and SOD2 mRNA in astrocytes (T98G); test: Nurr1-regulated gene expression in T98G astrocytes (qPCR); type: cell-based, human; conditions: vs DMSO control
NOR-1 = target: T2, NOR-1 (Homo sapiens, UniProt Q92570); test: Gal4-NOR-1 hybrid reporter gene assay; type: cell-based; conditions: HEK293T
T2 construct: chimeric receptors composed of the Gal4-DBD and the hinge region and LBD; expressed in transfected cells; host or cells: HEK293T
T2 sequence (Q92570 394-623 limits assumed): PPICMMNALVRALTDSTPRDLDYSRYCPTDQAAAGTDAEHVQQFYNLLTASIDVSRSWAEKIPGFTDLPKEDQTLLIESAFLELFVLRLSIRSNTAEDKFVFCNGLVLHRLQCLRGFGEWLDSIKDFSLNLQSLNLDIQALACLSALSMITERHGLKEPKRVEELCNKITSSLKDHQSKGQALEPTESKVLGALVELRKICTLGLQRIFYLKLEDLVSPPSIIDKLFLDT
Protocol: Nurr1 modulation was determined in a Gal4 hybrid reporter gene assay in HEK293T cells (German Collection of Microorganisms and Cell Culture GmbH, DSMZ) using pFR-Luc (Stratagene, La Jolla, CA, USA; reporter), pRL-SV40 (Promega, Madison, WI, USA; internal control) and pFA-CMV-hNurr1-LBD[14], coding for the hinge region and ligand binding domain of the canonical isoform of human Nurr1. […] After 24 h, the medium was changed to Opti-MEM without supplements, and cells were transiently transfected using Lipofectamine LTX reagent (Invitrogen, Carlsbad, CA, USA) according to the manufacturer’s protocol. Five hours after transfection, cells were incubated with the test compounds in Opti-MEM supplemented with penicillin (100 U/mL), streptomycin (100 μg/mL), and 0.1% DMSO for 16 h before luciferase activity was measured using the Dual-Glo Luciferase Assay System (Promega) according to the manufacturer’s protocol on a Tecan Spark luminometer (Tecan Deutschland GmbH, Crailsheim, Germany). Firefly luminescence was divided by Renilla luminescence and multiplied by 1000 resulting in relative light units (RLU) to normalize for transfection efficiency and cell growth. Fold activation was obtained by dividing the mean RLU of the test compound by the mean RLU of the untreated control. All samples were tested in at least three biologically independent experiments in duplicates. For dose-response curve fitting and calculation of EC50 values, the equation “[Agonist] vs. response -- Variable slope (four parameters)” was used in GraphPad Prism (version 7.00, GraphPad Software, La Jolla, CA, USA). Selectivity profiling was performed with identical procedures using pFA-CMV-Nur77-LBD[14], pFA-CMV-NOR-1-LBD[14], pFA-CMV-THRα-LBD[51], pFA-CMV-RARα-LBD[52], pFA-CMV-PPARα-LBD[53], pFA-CMV-PPARγ-LBD[53], pFA-CMV-PPARδ-LBD[53], pFA-CMV-LXRα-LBD[54], pFA-CMV-FXR-LBD[55] and pFA-CMV-hRXRα-LBD[56].

Nurr1 LBD = target: T3, Nurr1 LBD (Homo sapiens, UniProt P43354); test: Isothermal titration calorimetry (ITC); type: binding; conditions: 25 °C
T3 construct: Nurr1 LBD protein (5–30 µM, expressed as described previously[21]); made in house
T3 sequence (P43354 360-595 limits assumed): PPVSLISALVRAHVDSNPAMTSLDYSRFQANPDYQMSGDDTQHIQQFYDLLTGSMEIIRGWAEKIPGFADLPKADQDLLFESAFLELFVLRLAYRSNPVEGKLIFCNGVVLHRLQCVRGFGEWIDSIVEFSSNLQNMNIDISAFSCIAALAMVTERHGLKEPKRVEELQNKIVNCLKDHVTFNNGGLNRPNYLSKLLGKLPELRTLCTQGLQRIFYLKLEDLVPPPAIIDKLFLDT
Protocol: ITC experiments were conducted on an Affinity ITC instrument (TA Instruments, New Castle, DE) at 25 °C with a stirring rate of 75 rpm. Nurr1 LBD protein (5–30 µM, expressed as described previously[21]) in buffer (20 mM Tris pH 7.5, 100 mM NaCl, 5% glycerol) containing 1–4% DMSO was titrated with the test compounds (30–150 μM in the same buffer containing 1-4% DMSO) in 26 injections (1 × 1 µL, 25 × 3-4 μL) with an injection interval of 120-150 s. As control experiments, the test compounds were titrated to the buffer, and the buffer was titrated to the Nurr1 LBD protein under otherwise identical conditions. Results were analyzed using NanoAnalyze software (version 3.11.0, TA Instruments, New Castle, DE) with independent binding models.

[4] = target: T4, human full-length Nurr1 homodimer (NurRE) (Homo sapiens, UniProt P43354); test: Full-length Nurr1 reporter gene assay (NurRE); type: cell-based; conditions: full-length human Nurr1 homodimer, HEK293T
T4 construct: The full-length human nuclear receptor Nurr1 (pcDNA3.1-hNurr1-NE; Addgene plasmid #102363); host or cells: HEK293T
T4 sequence (P43354 whole entry): as the sequence (P43354 whole entry) above
From the text: as §1

| SMILES | TH positive cells [1] | EC50(NBRE) [2] | toxicity (WST-8) (HEK293T cells) | SOD2 mRNA induction (mean) ([3]; 10 µM) [fold] | TH mRNA induction (mean) ([3]; 10 µM) [fold] | VMAT2 mRNA induction (mean) ([3]; 10 µM) [fold] | EC50(NOR-1) (NOR-1) | Kd (Nurr1 LBD) (Nurr1 LBD) | EC50(NurRE) [4] | rel. absorbance (450 nm) (HEK293T cells; HEK293T, 10 µM, WST-8, vs DMSO ctrl) | SOD2 mRNA induction (mean) ([3]; 0.1 µM) [fold] | TH mRNA induction (mean) ([3]; 0.1 µM) [fold] | VMAT2 mRNA induction (mean) ([3]; 0.1 µM) [fold] | SOD2 mRNA induction (mean) ([3]; 0.3 µM) [fold] | TH mRNA induction (mean) ([3]; 0.3 µM) [fold] | VMAT2 mRNA induction (mean) ([3]; 0.3 µM) [fold] | EC50 (NOR-1) [nM] | Kd (Nurr1 LBD) [nM] | EC50 [4] [nM] |
| --- | --- | --- | --- | --- | --- | --- | --- | --- | --- | --- | --- | --- | --- | --- | --- | --- | --- | --- | --- |
| Cc1nc2c(Cl)cccn2c1NC(=O)c1ccc(-c2ccccc2)[nH]1 [Compound 29, N-(8-Chloro-2-methylimidazo[1,2-a]pyridin-3-yl)-5-phenyl-1H-pyrrole-2-carboxamide] | 44 and 37 and 31 and 38 | no activation (10 µM) | inactive (10 µM) | 1.131 | 1.042 | 0.9124 | no activation (10 µM) | no binding^b | no activation (10 µM) |  |  |  |  |  |  |  |  |  |  |
| Cc1nc2c(Cl)cccn2c1NC(=O)c1ccc(-c2ccc(N(C)C)cc2)o1 [Compound 36, N-(8-Chloro-2-methylimidazo[1,2-a]pyridin-3-yl)-5-(4-(dimethylamino)phenyl)furan-2-carboxamide] | 47 and 50 and 45 and 41 | no activation (1 µM) | no toxic effect; also recorded: non-toxic; also recorded: inactive (10 µM) |  |  |  |  |  |  | 85% and 95% and 80% | 1.308 | 1.414 | 1.925 | 1.894 | 1.603 | 1.791 | 110 ± 30 | 170 | 94 ± 3 |
